Test results taken from patent US12202828B2, “Bicyclic heterocycle compounds and their uses in therapy” (ASTEX THERAPEUTICS LIMITED, priority 2013, dated 2025).
Where “and” joins values, the source holds several entries; their conditions need not be identical. Equal entries are not always repeated. Structures can show the parent of a compound that is named as a salt. Where two headings read alike, the source gives them in different places.

Tests used:
hERG ion channel = molecular target: T1, hERG ion channel (Homo sapiens, UniProt Q12809); assay: Population Patch Clamp (PPC) hERG assay in CHO K1 cells; format: cell-based
T1 construct: expressed in transfected cells; host or cells: CHO K1
T1 sequence (Q12809 whole entry): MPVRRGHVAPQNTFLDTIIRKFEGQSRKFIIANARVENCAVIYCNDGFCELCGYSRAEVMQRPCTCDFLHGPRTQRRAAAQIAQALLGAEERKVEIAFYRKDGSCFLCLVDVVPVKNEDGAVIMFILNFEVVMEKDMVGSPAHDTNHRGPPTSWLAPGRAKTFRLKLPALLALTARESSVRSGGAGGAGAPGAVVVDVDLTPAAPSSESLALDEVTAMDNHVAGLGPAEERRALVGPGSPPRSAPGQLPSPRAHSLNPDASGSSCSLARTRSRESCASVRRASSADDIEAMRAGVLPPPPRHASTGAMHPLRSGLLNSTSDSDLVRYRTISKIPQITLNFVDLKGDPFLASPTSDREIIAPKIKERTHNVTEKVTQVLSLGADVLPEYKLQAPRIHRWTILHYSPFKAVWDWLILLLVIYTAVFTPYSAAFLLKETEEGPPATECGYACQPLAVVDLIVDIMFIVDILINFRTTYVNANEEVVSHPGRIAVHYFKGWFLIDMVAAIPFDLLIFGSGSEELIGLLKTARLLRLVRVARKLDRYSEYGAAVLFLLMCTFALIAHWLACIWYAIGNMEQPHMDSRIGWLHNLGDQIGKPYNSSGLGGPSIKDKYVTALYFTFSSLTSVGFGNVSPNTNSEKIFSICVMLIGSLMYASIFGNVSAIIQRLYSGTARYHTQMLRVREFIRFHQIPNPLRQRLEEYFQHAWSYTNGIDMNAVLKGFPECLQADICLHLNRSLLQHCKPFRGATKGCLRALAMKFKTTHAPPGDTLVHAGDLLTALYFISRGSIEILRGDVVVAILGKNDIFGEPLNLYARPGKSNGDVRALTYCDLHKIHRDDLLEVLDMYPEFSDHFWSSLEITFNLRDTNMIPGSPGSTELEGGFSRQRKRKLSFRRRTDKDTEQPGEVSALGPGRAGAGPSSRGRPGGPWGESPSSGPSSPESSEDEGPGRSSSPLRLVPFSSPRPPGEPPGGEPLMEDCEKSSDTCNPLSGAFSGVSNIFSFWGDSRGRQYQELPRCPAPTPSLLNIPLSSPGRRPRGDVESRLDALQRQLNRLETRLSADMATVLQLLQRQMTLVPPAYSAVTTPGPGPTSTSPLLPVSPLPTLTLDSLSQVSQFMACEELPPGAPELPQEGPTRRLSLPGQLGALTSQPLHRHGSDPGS
Method: Inhibition of the hERG channel was measured by automated patch clamp assay in CHO K1 cells, stably transfected with the hERG ion channel. PPC measurements were performed using an IonWorks Quattro instrument (Molecular Devices Corporation, Union City, CA) using a 384 well PatchPlate (Molecular Devices Corporation) with 64 apertures per well. Each concentration of test compound was tested in duplicate wells. Amphotericin B was used to obtain electrical access to the cell interior at a final concentration of 200 μg/mL. Human ether-à-gogo related gene (hERG) currents were measured with a prepulse to +40 mV (2 s) from the holding potential of −80 mV, followed by a step to −50 mV (2 s) to elicit the deactivating tail currents, before returning to the holding potential for 1s. Compounds were incubated for 600s between the pre- and post-compound reads. The external recording solution used was 130 mM Na Gluconate, 20 mM NaCl, 4 mM KCl, 1 mM MgCl2, 1.8 mM CaCl2, 10 mM Hepes, 5 mM Glucose, pH to 7.3 with NaOH. All data were filtered for seal quality, seal drop, and current amplitude. The maximum current amplitude of the 3rd pulse tail current was calculated before (Pre) and after (Post) compound addition and the amount of block assessed by dividing the Post-compound current amplitude by the Pre-compound current amplitude.

[1] = test system: MDA-MB-231 (human breast carcinoma); assay: Anti-proliferative activity, Alamar Blue assay, MDA-MB-231; format: cell-based; settings: proliferation, 72 hours compound
Method: (§1) The method is based on the ability of viable cells to reduce resazurin to its fluorescent product resorufin. For each proliferation assay cells are plated onto 96 well plates and allowed to recover for 16 hours prior to the addition of inhibitor compounds (in 0.1% DMSO v/v) for a further 72 hours.
(§2) The anti-proliferative activities of compounds of the invention can be determined by measuring the ability of the compounds to inhibit growth in 3 cancer cell lines: • EVSA-T (human breast carcinoma) DSMZ cat. no.

[2] = molecular target: T2, XIAP-Caspase-9 in HEK293-XIAP-Caspase-9 cells (Homo sapiens, UniProt P98170); assay: HEK293-XIAP-Caspase-9 immunoprecipitation (IP) MSD assay; format: cell-based; settings: compound 2 h at 37° C.; read-out: HEK293-X-C9 IP
T2 construct: FLAG; expressed in transfected cells
T2 sequence (P98170 whole entry): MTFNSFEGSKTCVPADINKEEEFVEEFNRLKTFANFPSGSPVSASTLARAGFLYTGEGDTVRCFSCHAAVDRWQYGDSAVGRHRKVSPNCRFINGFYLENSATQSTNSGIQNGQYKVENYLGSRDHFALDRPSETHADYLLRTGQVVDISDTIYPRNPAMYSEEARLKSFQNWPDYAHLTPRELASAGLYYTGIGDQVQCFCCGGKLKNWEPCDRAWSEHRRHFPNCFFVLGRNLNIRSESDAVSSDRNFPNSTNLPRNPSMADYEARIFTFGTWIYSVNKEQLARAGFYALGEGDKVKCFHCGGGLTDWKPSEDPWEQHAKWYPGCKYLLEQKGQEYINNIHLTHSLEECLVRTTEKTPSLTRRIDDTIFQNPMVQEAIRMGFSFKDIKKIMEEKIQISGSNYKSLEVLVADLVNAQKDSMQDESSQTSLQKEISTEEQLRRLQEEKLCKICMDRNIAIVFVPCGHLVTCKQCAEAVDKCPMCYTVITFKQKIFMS
Method: Stable HEK293-XIAP-Caspase-9 cells were plated out into 96-well plates [200 μl/well at 1×10^6 cells/mL in cultured complete medium (DMEM+10% FBS+0.5 mg/mL Geneticin (Invitrogen)] and left overnight at 37° C. to recover. Compounds were added to duplicate wells in 0.1% DMSO for 2 h at 37° C. Cells were lysed in 50 μl 1×MSD lysis buffer (1% Triton X-100 in 20 mM Tris·Cl (pH 7.6), 150 mM NaCl including protease inhibitors) for 20 min rocking at room temperature. Streptavidin high bind MSD plate (L15SB-2) were coated with biotinylated anti-FLAG M2 antibody (Sigma F9291) at 25 μl/well with a 5 μg/mL dilution of antibody in PBS for 1 h, shaking; followed by blocking for 1 h with 150 μl 3% BSA/TBST. Cell lysate (25 μl) was added to the 96-well anti-FLAG coated MSD plate and placed on shaker for 4 h at room temperature. […] Plates were washed 4 times with 150 μl TBST, and 150 μl/well 1×MSD read buffer (R92TC-2) added before reading each plate.
EC50 values were determined from dose-response plots using nonlinear least-squares analysis.

[3] = test system: EVSA-T (human breast carcinoma); assay: Anti-proliferative activity, Alamar Blue assay, EVSA-T; format: cell-based; settings: 72 hours compound, read-out: EVSA-T prolif
Method: as §1, §2

SK-MEL-28 = assay: Combination protocol for apoptosis, SK-MEL-28; format: cell-based, human
Method: (§3) After incubation of the cells with compound(s) with or without 1 ng/ml TNF-α (R&D Systems) for 24 h in a CO2 incubator at 37° C., cells were harvested by trypsinisation. The cell pellet from the 24-well plate was resuspended in 100 μl FACS buffer (PBS+1% fetal bovine serum). NucView488 reagent (from Biotium) was added to a final concentration of 2 μM. The plate was incubated in the dark for 30 minutes before measuring fluorescent stained cells in a Guava easyCyte HT cytometer (Millipore). Cleaved caspase-3 staining was recorded in the FL1 channel, with unstained and DMSO control wells being used to set the gated stained and unstained cell populations.

A375 = assay: Combination protocol for apoptosis, A375; format: cell-based, human; settings: for % Apoptosis Combination: 24 h
Method: as §3, with “Melanoma cell lines were plated out in duplicate wells of 24-well plates at 0.5×10^6 cells/ml the day before treatment to allow them to adhere. After” for “After”
No increase in apoptosis was seen over this time scale with the combination agent shown in the first column of the table alone (with or without TNF-α)—data not shown.

Structure (SMILES) | EC50 ([1]; Homo sapiens, MDA-MB-231, 72 h) [nM] | EC50 [2] | EC50 ([3]; Homo sapiens, EVSA-T, 72 h) [nM] | hERG PPC (PI) (hERG ion channel; @ 100 μM) [% @ 100] | also measured
CCCCc1cc2c([nH]c1=O)C(C)(C)CN2C(=O)CN1C[C@@H](C)NC[C@@H]1CN1C[C@H](C)OC[C@H]1C [Example 37, 6-Butyl-1-{2-[(2R,5R)-2-{[(2S,5R)-2,5-dimethylmorpholin-4-yl]methyl}-5-methylpiperazin-1-yl]acetyl}-3,3-dimethyl-1H,2H,3H,4H,5H-pyrrolo[3,2-b]pyridin-5-one dihydrochloride] | 18 | 7.4 nM | 3.2 |  | hERG PPC (PI) (hERG ion channel; @ 500 μM): 63% @ 500
CCCS(=O)(=O)Nc1ccc(F)c(C(=O)c2c[nH]c3ncc(-c4ccc(Cl)cc4)cc23)c1F [Vemurafenib, reference compound] |  |  |  |  | % Apoptosis Combination (SK-MEL-28; agent 1 μM with Example 2 1 μM + 1 ng/ml TNF-α, 24 h): 87.3%; Fold Increase (SK-MEL-28; combination (agent 1 μM) relative to Example 2 1 μM + TNF-α alone): 1.7; % Apoptosis Combination (A375; agent 4 μM with Example 2 1 μM + 1 ng/ml TNF-α): 61.3%; Fold Increase (A375; combination (agent 4 μM) relative to Example 2 1 μM + TNF-α alone): 2.0
CCCCn1cc2c(cc1=O)C(C)(C)CN2C(=O)CN1C[C@@H](C)NC[C@@H]1CN1[C@H](C)COC[C@H]1C [Example 35, 6-Butyl-1-{2-[(2R,5R)-2-{[(3R,5R)-3,5-dimethylmorpholin-4-yl]methyl}-5-methylpiperazin-1-yl]acetyl}-3,3-dimethyl-1H,2H,3H,5H,6H-pyrrolo[2,3-c]pyridin-5-one dihydrochloride] | 130 | 13 nM | 16 |  | hERG PPC (PI) (hERG ion channel; @ 1000 μM): 53% @ 1000
C[C@@H]1CN(CC(=O)N2CC(C)(C)c3nc(CO)c(Cc4cccc(F)c4)cc32)[C@@H](CN2CCOC[C@H]2C)CN1 [Example 15, 1-{6-[(3-Fluorophenyl)methyl]-5-(hydroxymethyl)-3,3-dimethyl-1H,2H,3H-pyrrolo[3,2-b]pyridin-1-yl}-2-[(2R,5R)-5-methyl-2-{[(3R)-3-methylmorpholin-4-yl]methyl}piperazin-1-yl]ethan-1-one dihydrochloride] |  | 4.9 nM | < 10 | 55 | EC50 ([3]; dihydrochloride): 7.8 nM
CC(=O)Nc1cccc(-n2c(=O)n(C3CC3)c(=O)c3c(Nc4ccc(I)cc4F)n(C)c(=O)c(C)c32)c1 [Trametinib] |  |  |  |  | % Apoptosis Combination (A375; agent 0.1 μM with Example 2 0.1 μM + 1 ng/ml TNF-α): 52.3%; Fold Increase (A375; combination (agent 0.1 μM) relative to Example 2 0.1 μM + TNF-α alone): 3.6
COC(CO)c1nc2c(cc1Cc1ccc(F)cc1)N(C(=O)CN1C[C@@H](C)NC[C@@H]1CN1[C@H](C)COC[C@H]1C)CC2(C)C (single isomer, unassigned) [Example 36, 2-[(2R,5R)-2-{[(3R,5R)-3,5-Dimethylmorpholin-4-yl]methyl}-5-methylpiperazin-1-yl]-1-{6-[(4-fluorophenyl)methyl]-5-((R or S)-2-hydroxy-1-methoxyethyl)-3,3-dimethyl-1H,2H,3H-pyrrolo[3,2-b]pyridin-1-yl}ethan-1-one] | 2.5 | 2.6 nM and 4.2 nM | 0.38 |  | IC50 (hERG ion channel; CHO K1 cells stably transfected with hERG): 420000 nM; EC50 [1]: 2.7 nM; EC50 [3]: 0.48 nM
C[C@@H]1CN(CC(=O)N2CC(C)(C)c3cc(=O)n(Cc4ccc(F)cc4F)cc32)[C@@H](CN2[C@H](C)COC[C@H]2C)CN1 [Example 20, 6-[(2,4-Difluorophenyl)methyl]-1-{2-[(2R,5R)-2-{[(3R,5R)-3,5-dimethylmorpholin-4-yl]methyl}-5-methylpiperazin-1-yl]acetyl}-3,3-dimethyl-1H,2H,3H,5H,6H-pyrrolo[2,3-c]pyridin-5-one dihydrochloride] |  | 6.3 nM |  | 44 | 
C[C@@H]1CN(CC(=O)N2CC(C)(C)c3c2cc(Cc2ccc(F)cc2)c(=O)n3N)[C@@H](CN2CCOC[C@H]2C)CN1 [Example 24, 4-Amino-6-[(4-fluorophenyl)methyl]-3,3-dimethyl-1-{2-[(2R,5R)-5-methyl-2-{[(3R)-3-methylmorpholin-4-yl]methyl}piperazin-1-yl]acetyl}-1H,2H,3H,4H,5H-pyrrolo[3,2-b]pyridin-5-one dihydrochloride] |  | 0.58 nM and 1.1 nM |  | 40 | 
C[C@@H]1CN(CC(=O)N2CC(C)(C)c3c2cc(Cc2ccc(F)cc2)c(=O)n3C)[C@@H](CN2C[C@H](C)OC[C@H]2C)CN1 [Example 18, 1-{2-[(2R,5R)-2-{[(2S,5R)-2,5-Dimethylmorpholin-4-yl]methyl}-5-methylpiperazin-1-yl]acetyl}-6-[(4-fluorophenyl)methyl]-3,3,4-trimethyl-1H,2H,3H,4H,5H-pyrrolo[3,2-b]pyridin-5-one trihydrochloride] |  | 1.2 nM |  |  | hERG PPC (PI) (hERG ion channel; @ 75 μM): 44% @ 75
C[C@@H]1CN(CC(=O)N2CC(C)(C)c3c2cc(Cc2ccc(F)cc2)c(=O)n3C)[C@@H](CN2CCOC[C@H]2C)CN1 [Example 6, 6-[(4-Fluorophenyl)methyl]-3,3,4-trimethyl-1-{2-[(2R,5R)-5-methyl-2-{[(3R)-3-methylmorpholin-4-yl]methyl}piperazin-1-yl]acetyl}-1H,2H,3H,4H,5H-pyrrolo[3,2-b]pyridin-5-one dihydrochloride] |  | 2 nM |  |  | hERG PPC (PI) (hERG ion channel; @ 250 μM): 56% @ 250
